A melting point compilation (Tetko et al.; mined from patent text by program, amines drawn as free bases though some values may be those of a salt)

SMILES	melting point
CC(=CC#N)c1cc(-c2ccc(S(C)(=O)=O)cc2)c(-c2ccc(F)cc2)s1	150 to 154 °C
C=CC(=O)Nc1c(C)cccc1C	144 to 145 °C
O=C(O)c1ccc(Cc2ccc(-c3ccccc3-c3nnn[nH]3)cc2)c2[nH]c(OCC(F)(F)F)nc12	204 to 206 °C
CN1CCN(CC/C=C/c2cc3c(Nc4ccc5[nH]ccc5c4)c(C#N)cnc3s2)CC1	220 °C
O=[N+]([O-])c1cc(CCCl)ccc1O	53 to 55 °C
Cc1nc(Br)c2n1-c1ccc(Cl)cc1C(c1ccccc1F)=NC2	201 to 205 °C
COc1cc(C2CCN(CCF)CC2)ccc1Nc1ncc2ccc(-c3ccccc3N(C)S(C)(=O)=O)n2n1	90 to 97 °C
COC(=O)Cn1cccc(O)c1=O	141 to 142 °C
CC(=O)C(C)=Cc1sccc1C	72 °C
Cc1ccc(S(=O)(=O)n2ccc(-c3ccc(F)cc3)c2-c2ccc(S(C)(=O)=O)cc2)cc1	228 to 229 °C
CC(CCc1ccc(OCCO)cc1)NCC(O)c1cccc(Cl)c1 (configuration not stated)	103 to 105 °C
CN(C)c1ccc(-c2cc(=S)ss2)nn1	265 °C
Cc1c(N(C)C)cc(C(=O)CS(C)(=O)=O)cc1N(C)C	161 to 163 °C
CCCCN(CCCC)c1ccc(C=Cc2ccc(C(C#N)=C(C#N)C#N)s2)c(OCc2ccccc2)c1	125 to 130 °C
CSc1sc(C(=O)O)c2c1-c1sc(C(=O)O)cc1CC2	> 300 °C
Cc1cc(C)cc(Oc2cc(Br)cc(S(=O)(=O)N3CCN(C(=O)OC(C)(C)C)CC3)c2)c1	155 °C
COc1ccc(N2CCN(c3c(C)c(C)c4c(c3C)C(N3CCCC3)C(C)(C)O4)CC2)cc1OC (configuration not stated)	128 to 130 °C
COC(=O)c1cc(Oc2ccc([N+](=O)[O-])cc2)ccc1OC	115 to 118 °C
CCC(=O)OCC(=O)C1(OC(C)=O)CCC2C3CC(C)C4=CC(=O)CCC4(C)C3C(O)CC21C (configuration not stated)	99 to 103 °C
O=C(COc1ccc(Cc2ccc(Cl)cc2)cc1)OCc1cccnc1	77 to 78 °C
COc1ccc2c(C(=O)c3ccc(OC4CCCCC4N4CCOCC4)cc3)c(-c3ccc(OCCN4CCCC4)cc3)sc2c1 (configuration not stated)	50 to 57 °C
CC(=O)OC1CSC(Oc2ccnc(-c3ccc(F)cc3C)c2)C(OC(C)=O)C1OC(C)=O (configuration not stated)	137 °C
COC(=O)c1ccc2cc(CCC=O)oc2c1	57 to 58 °C

The next lines start with the values.

melting point	SMILES
207 °C	CNC1(CC2CCCCC2)C(=O)N(S(=O)(=O)c2ccc([N+](=O)[O-])cc2OC)c2ccc(Cl)cc21 (configuration not stated)
110 to 112 °C	COc1ccc2c(n1)C1(CO2)C(=O)N(CC2CCCO2)c2cccc(Br)c21 (configuration not stated)
197 to 199 °C	COc1ccc2c(c1)Oc1cccc([N+](=O)[O-])c1N2
290 to 291 °C	Cc1cc(=O)[nH]c2c1C(=O)CC(c1ccccc1Cl)C2 (configuration not stated)
141 °C	CC1C(=O)N(c2ccccc2)C(=S)N1c1ccc(Oc2ccccc2)cc1 (configuration not stated)
130 to 132 °C	CNCc1cccc(NC(=O)c2c[nH]c3c2C(=O)CCC3)c1
195 to 197 °C	CCOC(=O)c1ccccc1-n1c(CCl)nc2ccc(Cl)cc2c1=O
130 to 132 °C	CC(=C1SC(=O)NC1=O)c1ccc(NCCOc2c(-c3ccc(F)cc3)n(C)c3ccccc3c2=O)cc1
174 to 175 °C	COC(=O)c1cc(-c2ccccc2)c(=O)n2ncc3ccccc3c12
176 to 177 °C	O=C1C(c2ccccc2)=C(c2cccs2)C(=O)N1c1ccc(Cl)cc1
108 to 110 °C	CCCCNC(=O)c1ccc(Cl)c(-n2nc(CCCC)n(Cc3ccc(-c4ccccc4S(N)(=O)=O)cc3F)c2=O)c1
130 °C	Cc1cccc(C(=O)Nc2ccc(N3CCN(Cc4ccc[nH]4)CC3)nc2)c1-c1ccc(C(C)C)cc1
105 to 107 °C	COC(=O)c1cccc(OCCN2CCN(c3cc(Cl)nnc3Cl)CC2)c1
155 to 157 °C	CC(C)(O)C(=O)Nc1ccc2ccccc2c1
